# Results taken from patent US20240109873A1, “ANTAGONISTS OF THE MUSCARINIC ACETYLCHOLINE RECEPTOR M4” (Vanderbilt University, priority 2020, published 2024).
# Target: T1, human mAChR M4 (Homo sapiens, UniProt P08173)
# T1 construct: expressed in transfected cells; host or cells: CHO-K1 (ATCC), co-transfected with chimeric G protein Gqi5
# T1 sequence (P08173 1-479): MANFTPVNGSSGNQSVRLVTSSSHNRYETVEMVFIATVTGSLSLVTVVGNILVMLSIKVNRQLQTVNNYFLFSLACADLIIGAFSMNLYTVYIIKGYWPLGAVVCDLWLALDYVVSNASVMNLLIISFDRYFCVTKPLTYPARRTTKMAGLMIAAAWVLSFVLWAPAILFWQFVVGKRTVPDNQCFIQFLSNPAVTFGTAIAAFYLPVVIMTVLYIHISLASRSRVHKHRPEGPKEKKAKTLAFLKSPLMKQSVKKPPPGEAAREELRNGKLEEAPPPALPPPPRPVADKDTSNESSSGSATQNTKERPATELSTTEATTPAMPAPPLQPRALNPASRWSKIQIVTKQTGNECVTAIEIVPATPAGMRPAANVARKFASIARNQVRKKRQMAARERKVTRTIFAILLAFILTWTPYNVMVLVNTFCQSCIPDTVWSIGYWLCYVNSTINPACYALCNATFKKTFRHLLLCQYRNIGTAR
# Assay: mAChR M4 cell-based functional assay (calcium flux, antagonism of EC80 acetylcholine response, M4/Gqi5/CHO-K1 cells)
# Conditions: for remaining activity at 30 µM: CHO-K1, % ACh maximum at 30 μM, read-out: Human M4 Emin; for IC50: decrease of the response elicited by an EC80 concentration of acetylcholine, CHO-K1 cells, Gqi5
# Method: Human or rat M4 cDNA, along with the chimeric G protein Gqi5, were transfected into Chinese hamster ovary (CHO-K1) cells purchased from the American Type Culture Collection using Lipofectamine2000. M4/Gqi5/CHO cells were grown in Ham's F-12 medium containing 10% heat-inactivated fetal bovine serum (FBS), 20 mM HEPES, 500 μg/mL G418 sulfate, and 200 μg/mL Hygromycin B.
# For high throughput measurement of agonist-evoked increases in intracellular calcium, CHO-K1 cells stably expressing muscarinic receptors were plated in growth medium lacking G418 and hygromycin at 15,000 cells/20 μL/well in Greiner 384-well black-walled, tissue culture (TC)-treated, clear-bottom plates (VWR). Cells were incubated overnight at 37° C. and 5% CO2. The next day, cells were washed using an ELX 405 (BioTek) with assay buffer; the final volume was then aspirated to 20 μL. Next, 20 μL of a 2.3 μM stock of Fluo-4/acetoxymethyl ester (Invitrogen, Carlsbad, CA), prepared as a 2.3 mM stock in DMSO and mixed in a 1:1 ratio with 10% (w/v) Pluronic F-127 and diluted in assay buffer, was added to the wells and the cell plates were incubated for 50 min at 37° C. and 5% CO2. Dye was removed by washing with the ELX 405 and the final volume was aspirated to 20 μL. Compound master plates were formatted in a 10-point concentration-response curve (CRC) format (1:3 dilutions) in 100% DMSO with a starting concentration of 10 or 1 mM using a BRAVO liquid handler (Agilent). Test compound CRCs were then transferred to daughter plates (240 nL) using the Echo acoustic plate reformatter (Labcyte, Sunnyvale, CA) and then diluted into assay buffer (40 μL) to a 2× stock using a Thermo Fisher Combi (Thermo Fisher Scientific, Waltham, MA).
# Calcium flux was measured using the Functional Drug Screening System (FDSS) 6000 or 7000 (Hamamatsu Corporation, Tokyo, Japan) as an increase in the fluorescent static ratio. Compounds were applied to cells (20 μL, 2×) using the automated system of the FDSS at 2 seconds into the protocol and the data were collected at 1 Hz. At 143 s, 10 μL of an EC20 concentration of the muscarinic receptor agonist acetylcholine was added (5×), followed by the addition of 12 μL of an EC80 concentration of acetylcholine at the 268 s time point (5×). Agonist activity was analyzed as a concentration-dependent increase in calcium mobilization upon compound addition. Positive allosteric modulator activity was analyzed as a concentration-dependent increase in the EC20 acetylcholine response. Antagonist activity was analyzed as a concentration-dependent decrease in the EC80 acetylcholine response; for the purposes of the tables herein, an IC50 (inhibitory concentration 50) was calculated as a concentration-dependent decrease of the response elicited by an EC80 concentration of acetylcholine. Concentration-response curves were generated using a four-parameter logistical equation in XLFit curve fitting software (IDBS, Bridgewater, NJ) for Excel (Microsoft, Redmond, WA) or Prism (GraphPad Software, Inc., San Diego, CA) or the Dotmatics software platform (Dotmatics, Bishop's Stortford, UK). […]
# Compounds were synthesized as described above. Activity (IC50 and Emin) was determined in the mAChR M4 cell-based functional assay as described above and the data are shown in Table 2.
SMILES,remaining activity at 30 µM [%],IC50 [nM]
"[2H]C([2H])([C@H]1CCCCO1)N1C[C@H]2C[C@H](Nc3ccc(-c4cnccc4C(F)(F)F)nn3)C[C@H]2C1 [Compound 7, (3aR,5s,6aS)-2-(((R)-tetrahydro-2H-pyran-2-yl)methyl-d2)-N-(6-(4-(trifluoromethyl)pyridin-3-yl)pyridazin-3-yl)octahydrocyclopenta[c]pyrrol-5-amine]",2,0.13
"[2H]C([2H])(C1CCCOC1)N1C[C@H]2C[C@H](Nc3ccc(-c4cnccc4C(F)(F)F)nn3)C[C@H]2C1 (stereo partly drawn) [Compound 9, (3aR,5s,6aS)-2-((tetrahydro-2H-pyran-3-yl)methyl-d2)-N-(6-(4-(trifluoromethyl)pyridin-3-yl)pyridazin-3-yl)octahydrocyclopenta[c]pyrrol-5-amine]",2,1
"[2H]C1([2H])CC(C([2H])([2H])N2C[C@H]3C[C@H](Nc4ccc(-c5cnccc5C(F)(F)F)nn4)C[C@H]3C2)CC([2H])([2H])O1 [Compound 12, (3aR,5s,6aS)-2-((tetrahydro-2H-pyran-4-yl-2,2,6,6-d4)methyl-d2)-N-(6-(4-(trifluoromethyl)pyridin-3-yl)pyridazin-3-yl)octahydrocyclopenta[c]pyrrol-5-amine]",2,0.77
"[2H]C([2H])(C1CCOCC1)N1C[C@H]2C[C@H](Nc3ccc(-c4cnccc4C(F)F)nn3)C[C@H]2C1 [Compound 13, (3aR,5s,6aS)-N-(6-(4-(difluoromethyl)pyridin-3-yl)pyridazin-3-yl)-2-((tetrahydro-2H-pyran-4-yl)methyl-d2)octahydrocyclopenta[c]pyrrol-5-amine]",4,1.2
"[2H]C([2H])(C1CCOCC1)N1C[C@H]2C[C@H](Nc3nnc(-c4cnccc4C(F)(F)F)cc3C3CC3)C[C@H]2C1 [Compound 14, (3aR,5s,6aS)-N-(4-cyclopropyl-6-(4-(trifluoromethyl)pyridin-3-yl)pyridazin-3-yl)-2-((tetrahydro-2H-pyran-4-yl)methyl-d2)octahydrocyclopenta[c]pyrrol-5-amine]",4,3.1

# Further compounds by falling IC50, results first:
remaining activity at 30 µM [%],IC50 [nM],SMILES
7,2.4,"[2H]C([2H])(C1CCOCC1)N1C[C@H]2C[C@H](Nc3nnc(-c4cnccc4C(F)(F)F)cc3OC)C[C@H]2C1 [Compound 15, (3aR,5s,6aS)-N-(4-methoxy-6-(4-(trifluoromethyl)pyridin-3-yl)pyridazin-3-yl)-2-((tetrahydro-2H-pyran-4-yl)methyl-d2)octahydrocyclopenta[c]pyrrol-5-amine]"
2,0.86,"[2H]C([2H])(N1C[C@H]2C[C@H](Nc3ccc(-c4cnccc4C(F)(F)F)nn3)C[C@H]2C1)C1(F)CCOCC1 [Compound 11, (3aR,5s,6aS)-2-((4-fluorotetrahydro-2H-pyran-4-yl)methyl-d2)-N-(6-(4-(trifluoromethyl)pyridin-3-yl)pyridazin-3-yl)octahydrocyclopenta[c]pyrrol-5-amine]"
3,0.56,"[2H]C([2H])(C1CCCCC1)N1C[C@H]2C[C@H](Nc3ccc(-c4cnccc4C(F)(F)F)nn3)C[C@H]2C1 [Compound 10, (3aR,5s,6aS)-2-(cyclohexylmethyl-d2)-N-(6-(4-(trifluoromethyl)pyridin-3-yl)pyridazin-3-yl)octahydrocyclopenta[c]pyrrol-5-amine]"
3,0.086,"[2H]C([2H])([C@@H]1CCCCO1)N1C[C@H]2C[C@H](Nc3ccc(-c4cnccc4C(F)(F)F)nn3)C[C@H]2C1 [Compound 8, (3aR,5s,6aS)-2-(((S)-tetrahydro-2H-pyran-2-yl)methyl-d2)-N-(6-(4-(trifluoromethyl)pyridin-3-yl)pyridazin-3-yl)octahydrocyclopenta[c]pyrrol-5-amine]"
